Data on four molecules can be found in ChEMBL document CHEMBL1201862, “PubChem BioAssay data set” (2004).

The nature of test [1]: NIH-3T3 fibroblast cytotoxicity, dose response, cytotoxicity control, cell-based, fluorescence, Alamar Blue, secondary assay (AID 2327).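 Further: NIH-3T3 mouse fibroblasts cultured with fluconazole at 8 µg/mL.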 It counts as functional.
In test [2] the test system is HEK293. Briefly: NOD1 signaling inhibitors, primary screen, cell-based, luminescence, uHTS (AID 1578). It counts as functional. Conditions: Homo sapiens.
Test [3] has as its target T1, Neuropeptide Y receptor type 2 (Homo sapiens, UniProt P49146). Briefly: NPY-Y2 antagonist potency, selectivity check, dose response, counter-screen for NPY-Y1 antagonist project, cell-based (AID 1278). Type of test: functional.
Test [4] concerns HEK293. Briefly: cells. It counts as functional, cell-based. The following applies: Homo sapiens.
The test system of test [5] is HEK293. Briefly: cells. It counts as functional, cell-based. The following applies: Homo sapiens. The source holds these as a separate data set.
The target in test [6] is Nucleotide-binding oligomerization domain-containing protein 2 (Homo sapiens, UniProt Q9HC29). Put plainly: NOD2 signaling inhibitors, cell-based, luminescence, uHTS, HEK293 (AID 1566). Type of test: functional.
Sequence of Nucleotide-binding oligomerization domain-containing protein 2 (Q9HC29 whole entry, the tested form may be a part): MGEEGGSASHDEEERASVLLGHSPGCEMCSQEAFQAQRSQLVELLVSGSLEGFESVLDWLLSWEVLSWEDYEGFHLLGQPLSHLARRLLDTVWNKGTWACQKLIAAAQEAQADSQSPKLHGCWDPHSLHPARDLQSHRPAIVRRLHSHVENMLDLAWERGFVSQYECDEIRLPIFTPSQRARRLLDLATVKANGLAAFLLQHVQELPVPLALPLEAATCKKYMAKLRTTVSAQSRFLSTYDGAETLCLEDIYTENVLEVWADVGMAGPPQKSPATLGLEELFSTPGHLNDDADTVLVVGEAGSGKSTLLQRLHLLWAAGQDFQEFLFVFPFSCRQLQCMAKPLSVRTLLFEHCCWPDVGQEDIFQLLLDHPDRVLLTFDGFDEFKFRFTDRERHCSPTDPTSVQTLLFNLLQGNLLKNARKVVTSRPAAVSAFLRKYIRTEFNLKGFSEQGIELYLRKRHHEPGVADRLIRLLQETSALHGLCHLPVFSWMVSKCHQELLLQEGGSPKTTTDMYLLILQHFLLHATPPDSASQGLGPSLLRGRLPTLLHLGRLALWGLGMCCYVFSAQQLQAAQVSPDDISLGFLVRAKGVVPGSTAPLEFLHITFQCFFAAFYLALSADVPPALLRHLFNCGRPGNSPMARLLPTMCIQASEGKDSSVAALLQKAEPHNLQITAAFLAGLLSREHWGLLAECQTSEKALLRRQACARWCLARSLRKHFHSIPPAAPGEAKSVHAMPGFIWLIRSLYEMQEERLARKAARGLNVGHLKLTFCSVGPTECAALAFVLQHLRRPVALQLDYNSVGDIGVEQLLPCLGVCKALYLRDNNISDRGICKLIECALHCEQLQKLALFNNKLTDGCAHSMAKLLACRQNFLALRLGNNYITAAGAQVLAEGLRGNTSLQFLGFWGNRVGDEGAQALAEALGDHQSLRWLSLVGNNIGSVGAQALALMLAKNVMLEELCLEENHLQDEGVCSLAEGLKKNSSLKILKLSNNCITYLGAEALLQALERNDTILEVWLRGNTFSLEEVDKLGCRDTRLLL
The test system of test [7] is HEK293. Put plainly: NOD2 signaling inhibitors in MDP-stimulated cells, cell-based, uHTS, luminescence (AID 2001). Type of test: functional. The following applies: Homo sapiens.
Test [8] addresses T2, Neuropeptide Y receptor type 1 (Homo sapiens, UniProt P25929). Briefly: NPY-Y1 receptor antagonist potency, dose response, cell-based (AID 1277). It counts as functional.
For test [9], the system named is HEK293. Briefly: cells. Type of test: functional, cell-based. Conditions: Homo sapiens. This is another data set of the same source.
The target of test [10] is T2, Neuropeptide Y receptor type 1. Type of test: functional.
Test [11] concerns the target Luciferin 4-monooxygenase (Photinus pyralis, UniProt P08659). Put plainly: firefly luciferase enzyme inhibitors, dose response, biochemical, luminescence (AID 1891).
Test [12] in a line: Luminescence Cell-Based Dose Confirmation HTS to Identify Inhibitors of Platelet Dense Granule Release. [Related pubchem assays: 1663 (Primary HTS), 1678 (Summary of Project)]. Type of test: functional.
Test [13] has as its target T1, Neuropeptide Y receptor type 2. Type of test: functional, cell-based.
For test [14], the system named is Streptococcus sp. 'group A'. Put plainly: growth inhibition of control SK(-) GAS strain, dose response, counter-screen for streptokinase expression inhibitor project, luminescence, kanamycin, BacTiterGlo, confirmation (AID 1900). Type of test: functional, organism-based.
For a further test, the target named is T3, Streptokinase A (Streptococcus pyogenes serotype M1, UniProt P10520).
T3 sequence (P10520 whole entry): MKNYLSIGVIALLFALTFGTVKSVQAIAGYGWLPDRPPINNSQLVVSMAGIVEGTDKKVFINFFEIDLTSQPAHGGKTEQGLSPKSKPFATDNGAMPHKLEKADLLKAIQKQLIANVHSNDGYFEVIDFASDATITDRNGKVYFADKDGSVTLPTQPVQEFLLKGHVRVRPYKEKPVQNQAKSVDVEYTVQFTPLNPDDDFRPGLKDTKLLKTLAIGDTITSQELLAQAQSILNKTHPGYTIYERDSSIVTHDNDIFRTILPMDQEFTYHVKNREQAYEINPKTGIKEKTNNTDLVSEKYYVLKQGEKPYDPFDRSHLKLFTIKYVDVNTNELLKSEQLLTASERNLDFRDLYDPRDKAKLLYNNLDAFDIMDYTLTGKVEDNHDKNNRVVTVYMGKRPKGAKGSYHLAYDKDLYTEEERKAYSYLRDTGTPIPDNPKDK
Briefly: S. pyogenes streptokinase expression inhibitors, potency, dose response, plasminogen activation absorbance, OD405 (AID 1914).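 Further: secreted streptokinase activity via plasminogen activation per viability signal from cell pellet.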 Type of test: functional, Streptococcus pyogenes M1 GAS.

Test [15] in a line: enhancers of respiration in Yfh1-depleted yeast, dose response, Friedreich's ataxia, plus single-dose screen (AID 1465).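 Further: yeast depleted of Yfh1p frataxin homolog grown on glycerol needing respiration; WST-1 tetrazolium dye reduction as measure of cellular dehydrogenase metabolic activity.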 It counts as functional.
In a further test the test system is Streptococcus. Put plainly: Group A Streptococcus viability loss, dose response, counter-screen for streptokinase expression inhibitor project, luminescence, BacTiterGlo (AID 1915).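 Further: potency for reduction of bacterial viability or growth.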 It counts as functional, organism-based.
The target of test [16] is T4, Replicative DNA helicase DnaB (Mycobacterium tuberculosis, UniProt P9WMR3).
T4 sequence (P9WMR3 whole entry): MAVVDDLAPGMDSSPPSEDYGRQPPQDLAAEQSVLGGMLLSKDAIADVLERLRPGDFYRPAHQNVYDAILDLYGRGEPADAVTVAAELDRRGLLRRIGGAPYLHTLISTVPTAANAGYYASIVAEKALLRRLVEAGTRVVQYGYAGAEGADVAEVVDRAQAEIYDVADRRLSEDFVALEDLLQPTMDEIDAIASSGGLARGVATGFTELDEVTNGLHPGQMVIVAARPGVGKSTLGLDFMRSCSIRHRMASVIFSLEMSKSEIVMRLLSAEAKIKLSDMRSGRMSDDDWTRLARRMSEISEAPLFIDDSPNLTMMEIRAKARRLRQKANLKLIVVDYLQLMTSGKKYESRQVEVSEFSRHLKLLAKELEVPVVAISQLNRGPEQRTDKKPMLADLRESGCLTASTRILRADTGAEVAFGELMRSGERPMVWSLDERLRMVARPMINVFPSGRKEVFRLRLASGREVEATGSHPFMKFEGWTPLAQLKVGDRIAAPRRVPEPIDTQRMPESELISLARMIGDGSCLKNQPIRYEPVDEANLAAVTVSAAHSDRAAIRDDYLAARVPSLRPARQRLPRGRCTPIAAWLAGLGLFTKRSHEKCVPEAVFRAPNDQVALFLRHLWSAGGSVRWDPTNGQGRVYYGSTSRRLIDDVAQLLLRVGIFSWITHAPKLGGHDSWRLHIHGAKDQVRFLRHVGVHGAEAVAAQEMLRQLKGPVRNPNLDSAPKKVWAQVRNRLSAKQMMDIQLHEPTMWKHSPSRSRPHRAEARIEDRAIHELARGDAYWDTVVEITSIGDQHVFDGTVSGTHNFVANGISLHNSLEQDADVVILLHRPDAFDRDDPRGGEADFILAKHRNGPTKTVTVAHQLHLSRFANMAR
Briefly: DnaB intein splicing inhibitors, dose response, biochemical, cell-free fluorescence (AID 449749). It counts as functional.

The target in the next test is T5, Protein RecA (Mycobacterium tuberculosis, UniProt P9WHJ3).
T5 sequence (P9WHJ3 whole entry): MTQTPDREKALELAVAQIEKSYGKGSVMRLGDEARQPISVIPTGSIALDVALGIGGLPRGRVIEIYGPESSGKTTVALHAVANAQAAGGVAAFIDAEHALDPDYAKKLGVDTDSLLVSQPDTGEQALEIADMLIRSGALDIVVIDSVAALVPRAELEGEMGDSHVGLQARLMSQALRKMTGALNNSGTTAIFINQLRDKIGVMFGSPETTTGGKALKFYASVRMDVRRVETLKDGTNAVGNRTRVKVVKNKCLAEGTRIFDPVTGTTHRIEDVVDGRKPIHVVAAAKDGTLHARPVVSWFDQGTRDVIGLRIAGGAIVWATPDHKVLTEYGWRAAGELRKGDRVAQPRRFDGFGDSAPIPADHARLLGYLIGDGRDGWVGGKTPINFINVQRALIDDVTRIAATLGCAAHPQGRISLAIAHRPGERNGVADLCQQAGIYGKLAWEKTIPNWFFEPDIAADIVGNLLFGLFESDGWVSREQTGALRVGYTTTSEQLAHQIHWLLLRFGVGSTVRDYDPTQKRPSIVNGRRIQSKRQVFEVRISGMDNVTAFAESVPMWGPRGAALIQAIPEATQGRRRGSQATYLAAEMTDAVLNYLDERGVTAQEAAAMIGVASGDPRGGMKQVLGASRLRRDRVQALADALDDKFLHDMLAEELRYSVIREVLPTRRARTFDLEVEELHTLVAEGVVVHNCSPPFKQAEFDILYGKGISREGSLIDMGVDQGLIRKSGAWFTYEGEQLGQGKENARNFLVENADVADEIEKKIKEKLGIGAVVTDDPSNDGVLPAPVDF
Briefly: Fluorescence Cell-Free Homogeneous Dose Retest to Identify Inhibitors of RecA-Intein Splicing Activity. [Related pubchem assays (depositor defined):AID2097, AID2223, AID489010, AID492950]. It counts as functional.

Test [17] has as its target Peroxisome proliferator-activated receptor gamma/Nuclear receptor coactivator 1 (Homo sapiens, UniProt P37231). Put plainly: TR-FRET dose response biochemical High Throughput Screening assay for agonists of the steroid receptor coactivator 1 (SRC-1) recruitment by the peroxisome proliferator-activated receptor gamma (PPAR gamma): non-selective agonists. [Related pubchem assays (depositor defined):AID1300, AID1808, AID504735, AID631]. It counts as protein assay.

The target of test [18] is Peroxisome proliferator-activated receptor gamma/Nuclear receptor coactivator 3 (Homo sapiens, UniProt P37231). Briefly: TR-FRET dose response biochemical High Throughput Screening assay for agonists of the steroid receptor coactivator 3 (SRC-3) recruitment by the peroxisome proliferator-activated receptor gamma (PPAR gamma): non-selective agonists. [Related pubchem assays: 1301 (Confirmation screen.), 1048 (Primary screen.)]. Type of test: functional.
Sequence of Peroxisome proliferator-activated receptor gamma/Nuclear receptor coactivator 3 (P37231 whole entry): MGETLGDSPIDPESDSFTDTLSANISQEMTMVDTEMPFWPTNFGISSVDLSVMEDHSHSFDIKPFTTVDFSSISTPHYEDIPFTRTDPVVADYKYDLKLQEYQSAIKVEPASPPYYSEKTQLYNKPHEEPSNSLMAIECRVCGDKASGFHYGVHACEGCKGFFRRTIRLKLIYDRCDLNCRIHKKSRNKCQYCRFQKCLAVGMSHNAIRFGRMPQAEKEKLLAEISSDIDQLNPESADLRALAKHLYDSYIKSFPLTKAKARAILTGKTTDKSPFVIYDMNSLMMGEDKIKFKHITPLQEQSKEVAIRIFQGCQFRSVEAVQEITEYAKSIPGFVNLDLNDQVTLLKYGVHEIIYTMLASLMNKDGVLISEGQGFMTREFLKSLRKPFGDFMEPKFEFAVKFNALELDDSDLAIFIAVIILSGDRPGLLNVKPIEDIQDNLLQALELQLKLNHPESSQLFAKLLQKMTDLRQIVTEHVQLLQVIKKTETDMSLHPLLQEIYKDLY
Sequence of Peroxisome proliferator-activated receptor gamma/Nuclear receptor coactivator 3 (Q9Y6Q9 whole entry, further chain): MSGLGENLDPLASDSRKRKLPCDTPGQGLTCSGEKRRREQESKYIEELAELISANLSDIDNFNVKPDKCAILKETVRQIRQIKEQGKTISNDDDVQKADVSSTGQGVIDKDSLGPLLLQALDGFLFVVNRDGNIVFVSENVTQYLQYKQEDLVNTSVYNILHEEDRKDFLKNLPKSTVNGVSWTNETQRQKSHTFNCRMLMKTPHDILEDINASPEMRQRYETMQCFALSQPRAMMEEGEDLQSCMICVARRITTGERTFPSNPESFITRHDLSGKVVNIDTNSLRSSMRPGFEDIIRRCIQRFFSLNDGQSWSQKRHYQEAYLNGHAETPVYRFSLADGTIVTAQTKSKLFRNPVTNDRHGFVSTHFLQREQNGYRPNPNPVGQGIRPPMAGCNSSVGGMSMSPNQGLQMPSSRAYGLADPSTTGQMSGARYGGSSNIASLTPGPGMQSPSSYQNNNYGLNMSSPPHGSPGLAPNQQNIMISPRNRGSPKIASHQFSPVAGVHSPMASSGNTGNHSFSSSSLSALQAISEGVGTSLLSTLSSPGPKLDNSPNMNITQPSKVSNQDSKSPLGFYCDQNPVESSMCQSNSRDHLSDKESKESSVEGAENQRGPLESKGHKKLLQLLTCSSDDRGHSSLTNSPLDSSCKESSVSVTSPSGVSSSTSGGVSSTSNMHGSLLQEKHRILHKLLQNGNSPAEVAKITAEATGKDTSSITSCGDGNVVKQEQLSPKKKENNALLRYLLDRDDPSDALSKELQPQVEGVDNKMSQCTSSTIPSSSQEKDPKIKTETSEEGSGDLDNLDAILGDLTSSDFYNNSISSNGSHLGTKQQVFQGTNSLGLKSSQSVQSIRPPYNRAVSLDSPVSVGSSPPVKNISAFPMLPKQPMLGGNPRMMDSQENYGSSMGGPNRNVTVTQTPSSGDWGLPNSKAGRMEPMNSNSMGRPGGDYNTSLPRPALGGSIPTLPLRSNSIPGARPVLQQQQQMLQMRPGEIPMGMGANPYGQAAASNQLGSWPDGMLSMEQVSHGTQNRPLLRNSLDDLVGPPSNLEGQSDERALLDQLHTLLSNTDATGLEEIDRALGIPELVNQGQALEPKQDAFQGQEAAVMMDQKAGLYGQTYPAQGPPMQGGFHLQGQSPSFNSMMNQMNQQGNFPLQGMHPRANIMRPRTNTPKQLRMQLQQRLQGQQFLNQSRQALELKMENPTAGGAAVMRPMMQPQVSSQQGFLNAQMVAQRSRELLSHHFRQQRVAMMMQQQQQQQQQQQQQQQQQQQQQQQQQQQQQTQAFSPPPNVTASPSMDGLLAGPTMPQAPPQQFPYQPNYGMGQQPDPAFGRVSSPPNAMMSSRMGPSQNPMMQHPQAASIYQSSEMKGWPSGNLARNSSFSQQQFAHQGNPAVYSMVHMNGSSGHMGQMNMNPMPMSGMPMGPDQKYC

Test [19] addresses T6, Mannose-6-phosphate isomerase (Homo sapiens, UniProt P34949).
T6 sequence (P34949 whole entry): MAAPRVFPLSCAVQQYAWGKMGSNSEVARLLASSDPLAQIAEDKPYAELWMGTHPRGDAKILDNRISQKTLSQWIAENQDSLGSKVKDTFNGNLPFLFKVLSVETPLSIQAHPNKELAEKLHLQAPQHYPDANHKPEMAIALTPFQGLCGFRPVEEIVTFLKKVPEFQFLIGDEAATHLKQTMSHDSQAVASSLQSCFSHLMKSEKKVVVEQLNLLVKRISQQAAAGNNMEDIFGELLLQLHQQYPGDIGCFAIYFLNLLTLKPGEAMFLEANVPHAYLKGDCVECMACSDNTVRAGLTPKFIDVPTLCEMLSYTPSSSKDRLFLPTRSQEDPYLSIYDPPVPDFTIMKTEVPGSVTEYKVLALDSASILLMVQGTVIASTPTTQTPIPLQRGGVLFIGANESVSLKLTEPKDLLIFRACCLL
Put plainly: inhibitors of human PMI, primary screen, biochemical, fluorescence intensity, coupled assay (AID 1209).

Test [20] addresses Peroxisome proliferator-activated receptor gamma/Nuclear receptor coactivator 2 (Homo sapiens, UniProt P37231). Briefly: TR-FRET dose response biochemical High Throughput Screening assay for agonists of the steroid receptor coactivator 2 (SRC-2) recruitment by the peroxisome proliferator-activated receptor gamma (PPAR gamma): non-selective agonists. [Related pubchem assays: 1297, 1032 ]. Type of test: functional.

Test [21] has as its target T6, Mannose-6-phosphate isomerase. Put plainly: human PMI inhibitors, high substrate, primary screen, biochemical, fluorescence intensity, high mannose 6-phosphate (AID 1220).
Test [22] deals with Glucose-6-phosphate 1-dehydrogenase (Homo sapiens, UniProt P11413). Put plainly: human G6PD enzyme inhibitors, dose response, selectivity assay for P. falciparum G6PD inhibitor project, biochemical, fluorescence (AID 504792). It counts as functional.
Sequence of Glucose-6-phosphate 1-dehydrogenase (P11413 whole entry): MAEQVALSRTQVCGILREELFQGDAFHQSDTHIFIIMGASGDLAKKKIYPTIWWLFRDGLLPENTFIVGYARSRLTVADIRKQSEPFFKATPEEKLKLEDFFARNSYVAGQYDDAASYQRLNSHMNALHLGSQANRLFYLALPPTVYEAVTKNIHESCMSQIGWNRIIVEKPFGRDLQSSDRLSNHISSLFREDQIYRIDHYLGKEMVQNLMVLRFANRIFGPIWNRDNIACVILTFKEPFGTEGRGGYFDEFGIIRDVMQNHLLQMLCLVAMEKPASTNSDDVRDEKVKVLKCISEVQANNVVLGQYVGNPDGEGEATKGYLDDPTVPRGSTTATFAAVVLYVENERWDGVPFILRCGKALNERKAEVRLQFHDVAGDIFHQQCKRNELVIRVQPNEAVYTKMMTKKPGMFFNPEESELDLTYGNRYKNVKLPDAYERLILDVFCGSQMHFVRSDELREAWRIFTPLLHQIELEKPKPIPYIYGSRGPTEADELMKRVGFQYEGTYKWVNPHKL

The source made the active and inactive calls. Where only a bound is given, the exact number is not on record here.

T2 sequence (P25929 whole entry): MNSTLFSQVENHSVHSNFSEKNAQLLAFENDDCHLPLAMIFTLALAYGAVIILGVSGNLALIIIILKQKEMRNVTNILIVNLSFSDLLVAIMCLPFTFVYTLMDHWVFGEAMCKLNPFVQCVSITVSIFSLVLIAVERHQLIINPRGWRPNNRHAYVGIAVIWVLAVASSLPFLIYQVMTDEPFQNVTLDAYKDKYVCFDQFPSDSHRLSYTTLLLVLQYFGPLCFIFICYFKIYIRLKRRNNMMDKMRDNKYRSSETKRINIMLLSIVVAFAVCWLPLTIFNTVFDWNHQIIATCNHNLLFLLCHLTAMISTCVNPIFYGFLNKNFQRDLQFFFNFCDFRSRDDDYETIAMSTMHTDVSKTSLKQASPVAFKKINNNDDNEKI
T1 sequence (P49146 whole entry): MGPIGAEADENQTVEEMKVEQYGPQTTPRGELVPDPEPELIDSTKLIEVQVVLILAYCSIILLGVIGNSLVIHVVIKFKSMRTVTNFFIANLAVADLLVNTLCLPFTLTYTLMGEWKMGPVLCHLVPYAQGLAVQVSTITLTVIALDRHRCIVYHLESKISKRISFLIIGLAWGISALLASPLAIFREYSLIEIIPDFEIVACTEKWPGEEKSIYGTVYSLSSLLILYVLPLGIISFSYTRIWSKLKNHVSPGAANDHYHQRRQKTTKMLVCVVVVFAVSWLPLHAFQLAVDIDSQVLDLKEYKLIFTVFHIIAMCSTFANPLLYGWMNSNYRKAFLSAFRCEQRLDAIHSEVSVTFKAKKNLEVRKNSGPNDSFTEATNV
Sequence of Luciferin 4-monooxygenase (P08659 whole entry): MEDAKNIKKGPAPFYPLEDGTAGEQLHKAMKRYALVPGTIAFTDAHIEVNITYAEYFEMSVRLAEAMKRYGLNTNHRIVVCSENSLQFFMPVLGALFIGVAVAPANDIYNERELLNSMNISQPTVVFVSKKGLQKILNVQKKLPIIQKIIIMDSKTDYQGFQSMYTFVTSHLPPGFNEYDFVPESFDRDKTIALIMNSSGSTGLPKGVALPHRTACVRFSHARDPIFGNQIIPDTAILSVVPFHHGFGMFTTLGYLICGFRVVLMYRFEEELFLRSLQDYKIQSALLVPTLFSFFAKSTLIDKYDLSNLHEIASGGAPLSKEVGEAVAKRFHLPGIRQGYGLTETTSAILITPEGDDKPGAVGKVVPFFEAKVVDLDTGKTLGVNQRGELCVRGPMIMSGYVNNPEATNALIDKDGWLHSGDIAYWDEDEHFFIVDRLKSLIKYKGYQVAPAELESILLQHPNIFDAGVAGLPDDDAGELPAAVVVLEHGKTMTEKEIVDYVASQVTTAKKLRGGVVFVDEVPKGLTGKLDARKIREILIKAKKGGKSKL

In the case of `CC1(C)CC(N2CCCCCC2)=CC(=[N+]2CCCC2)C1`, the EC50 was > 150 µM (inactive) in test [1], 4.99 µM (active) with HEK293 [2] and 17.5 µM (active) in [6]. The IC50 in [3] was > 35 µM (not active); with HEK293 [4] it was 8.01 µM (active); in the test on HEK293 [5] it was > 20 µM (inactive); with HEK293 [7], 16.4 µM (inactive); in [8], > 35 µM (not active); with HEK293 [9], > 20 µM (inactive).
Consider `COc1cc(/C=N/NC(N)=O)ccc1OCC(=O)Nc1ccc(C)c(C)c1`, for which the values for the IC50 in test [10] and in test [13] were > 35 µM (not active) and 9.83 µM (active), respectively. Further, the EC50 in [11] is > 112 µM (not active); in test [12], 11.4 µM (active).
In the case of `N#C/C(=N\Nc1ccc(S(=O)(=O)N2CCc3ccccc32)cc1)C(N)=S`, the EC50 was 14.5 µM (active) in [14]; > 150 µM (not active) on Streptokinase A; > 100 µM (active) in [15]; 40 µM (active) in the test on Streptococcus; 31.7 µM (active) at Protein RecA. Moreover, in test [16], the AC50 is 2.32 µM (active).
For `Cc1cccc(-n2c(=S)[nH]c3sc4c(c3c2=O)CCc2ccccc2-4)c1`, the EC50 was > 79.4 µM (inactive) in test [17], > 79.4 µM (not active) in [18] and > 79.4 µM (not active) in [20]. In addition, the figures for the IC50 in test [19], in test [21] and in test [22] were 36.3 µM (active), > 50 µM (not active) and > 80 µM (inactive), respectively.
